The source of these data is BindingDB's records for doi:10.1039/c2dt30198a (Shanxi University, 2012).

Test [1] concerns the target T1, Tyrosine-protein phosphatase non-receptor type 1 (Homo sapiens, UniProt P18031).
T1 sequence (P18031 whole entry): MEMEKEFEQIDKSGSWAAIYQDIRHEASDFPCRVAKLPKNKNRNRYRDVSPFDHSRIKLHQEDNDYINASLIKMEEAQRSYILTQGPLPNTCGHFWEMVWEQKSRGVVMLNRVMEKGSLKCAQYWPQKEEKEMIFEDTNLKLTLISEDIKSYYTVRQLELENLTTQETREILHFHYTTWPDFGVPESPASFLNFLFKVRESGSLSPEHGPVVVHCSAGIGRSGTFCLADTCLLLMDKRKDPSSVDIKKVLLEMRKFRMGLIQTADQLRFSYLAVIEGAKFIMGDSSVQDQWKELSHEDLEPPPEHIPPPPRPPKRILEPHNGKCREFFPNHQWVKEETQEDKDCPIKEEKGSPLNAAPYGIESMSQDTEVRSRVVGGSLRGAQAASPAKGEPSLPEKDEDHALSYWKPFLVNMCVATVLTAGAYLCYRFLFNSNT
As to the kind of experiment: PTP inhibition assay. The conditions noted are these: pH 7.2. Here is the method:
(§1) The assays were performed in 20 mM MOPS buffer, pH 7.2, containing 50 mM NaCl and 2 mM GSH. Compounds were dissolved in DMSO and diluted to various concentration gradients and further diluted for activity evaluations. Ten microliter of complex was mixed to 82 L enzyme solution for 30 min, followed by addition of 2 L of pNPP (0.1 M) substrate to initiate the reaction. After 30 min at RT, 6 L of 2 M NaOH was added to terminate the reaction. The absorbance was measured at 405 nm.

Test [2] has as its target T2, Tyrosine-protein phosphatase non-receptor type 11 (Homo sapiens, UniProt Q06124).
T2 sequence (Q06124 whole entry): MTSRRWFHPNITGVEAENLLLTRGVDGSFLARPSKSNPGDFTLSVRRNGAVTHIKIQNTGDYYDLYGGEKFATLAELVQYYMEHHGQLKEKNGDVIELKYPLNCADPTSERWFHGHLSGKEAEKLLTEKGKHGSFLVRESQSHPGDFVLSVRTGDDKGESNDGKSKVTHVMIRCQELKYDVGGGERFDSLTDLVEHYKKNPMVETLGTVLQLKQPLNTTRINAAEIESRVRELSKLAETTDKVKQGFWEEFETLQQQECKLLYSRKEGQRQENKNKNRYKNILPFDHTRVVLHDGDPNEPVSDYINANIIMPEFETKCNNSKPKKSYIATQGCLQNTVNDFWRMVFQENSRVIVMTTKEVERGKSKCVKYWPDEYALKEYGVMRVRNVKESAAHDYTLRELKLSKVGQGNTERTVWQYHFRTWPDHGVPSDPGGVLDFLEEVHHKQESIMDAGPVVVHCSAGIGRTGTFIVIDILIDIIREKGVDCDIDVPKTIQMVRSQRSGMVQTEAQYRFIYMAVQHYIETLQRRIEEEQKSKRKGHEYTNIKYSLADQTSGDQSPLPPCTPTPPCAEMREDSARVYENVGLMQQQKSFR
As to the kind of experiment: PTP inhibition assay. The conditions noted are these: pH 7.2. Here is the method: as §1

Test [3] deals with T3, Tyrosine-protein phosphatase non-receptor type 2 (Homo sapiens, UniProt P17706).
T3 sequence (P17706 whole entry): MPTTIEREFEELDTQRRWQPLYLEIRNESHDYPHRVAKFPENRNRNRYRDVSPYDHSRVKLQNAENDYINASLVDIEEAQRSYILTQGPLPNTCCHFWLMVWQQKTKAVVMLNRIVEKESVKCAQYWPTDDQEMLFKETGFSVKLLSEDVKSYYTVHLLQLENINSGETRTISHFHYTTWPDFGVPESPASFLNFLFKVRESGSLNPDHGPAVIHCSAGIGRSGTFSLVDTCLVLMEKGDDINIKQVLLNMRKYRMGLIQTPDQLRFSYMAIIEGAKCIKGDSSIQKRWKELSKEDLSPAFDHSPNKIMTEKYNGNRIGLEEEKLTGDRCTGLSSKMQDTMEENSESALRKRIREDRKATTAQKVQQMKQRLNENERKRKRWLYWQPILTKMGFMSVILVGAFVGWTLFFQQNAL
Description: PTP inhibition assay. The note with it: pH 7.2. Here is the method:
as §1

Test [4] concerns the target Tyrosine-protein phosphatase non-receptor type 6 (Homo sapiens, UniProt P29350). As to the kind of experiment: PTP inhibition assay. The note with it: pH 7.2. As to the method:
as §1

In test [5] the target is Tyrosine-protein phosphatase non-receptor type 9 (PTP-MEG2, Homo sapiens) (UniProt P43378). Description: The assays were performed in 20 mM MOPS buffer, pH 7.2, containing 50 mM NaCl and 2 mM GSH. Compounds were dissolved in DMSO and diluted to various concentration gradients and further diluted for activity evaluations. Ten microliter of complex was mixed to 82 L enzyme solution for 30 min, followed by addition of 2 L of pNPP (0.1 M) substrate to initiat.
Tyrosine-protein phosphatase non-receptor type 9 (PTP-MEG2, Homo sapiens), sequence (P43378 whole entry, looked up): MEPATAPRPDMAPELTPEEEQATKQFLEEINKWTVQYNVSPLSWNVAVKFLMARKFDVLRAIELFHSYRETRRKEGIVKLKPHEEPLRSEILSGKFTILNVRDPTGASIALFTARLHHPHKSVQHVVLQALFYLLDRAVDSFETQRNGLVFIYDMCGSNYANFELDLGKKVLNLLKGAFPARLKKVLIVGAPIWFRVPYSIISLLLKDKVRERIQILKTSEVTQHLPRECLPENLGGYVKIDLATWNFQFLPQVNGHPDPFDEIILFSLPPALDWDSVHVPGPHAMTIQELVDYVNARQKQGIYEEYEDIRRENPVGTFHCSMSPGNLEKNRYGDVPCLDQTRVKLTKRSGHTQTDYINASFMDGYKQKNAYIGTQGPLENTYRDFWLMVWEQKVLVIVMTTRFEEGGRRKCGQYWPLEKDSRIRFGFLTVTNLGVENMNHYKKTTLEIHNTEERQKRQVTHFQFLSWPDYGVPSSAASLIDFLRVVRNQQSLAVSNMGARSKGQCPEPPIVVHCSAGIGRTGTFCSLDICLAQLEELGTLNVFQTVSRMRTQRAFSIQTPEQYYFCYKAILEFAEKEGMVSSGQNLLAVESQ

Tyrosine-protein phosphatase non-receptor type 6, sequence (P29350 whole entry): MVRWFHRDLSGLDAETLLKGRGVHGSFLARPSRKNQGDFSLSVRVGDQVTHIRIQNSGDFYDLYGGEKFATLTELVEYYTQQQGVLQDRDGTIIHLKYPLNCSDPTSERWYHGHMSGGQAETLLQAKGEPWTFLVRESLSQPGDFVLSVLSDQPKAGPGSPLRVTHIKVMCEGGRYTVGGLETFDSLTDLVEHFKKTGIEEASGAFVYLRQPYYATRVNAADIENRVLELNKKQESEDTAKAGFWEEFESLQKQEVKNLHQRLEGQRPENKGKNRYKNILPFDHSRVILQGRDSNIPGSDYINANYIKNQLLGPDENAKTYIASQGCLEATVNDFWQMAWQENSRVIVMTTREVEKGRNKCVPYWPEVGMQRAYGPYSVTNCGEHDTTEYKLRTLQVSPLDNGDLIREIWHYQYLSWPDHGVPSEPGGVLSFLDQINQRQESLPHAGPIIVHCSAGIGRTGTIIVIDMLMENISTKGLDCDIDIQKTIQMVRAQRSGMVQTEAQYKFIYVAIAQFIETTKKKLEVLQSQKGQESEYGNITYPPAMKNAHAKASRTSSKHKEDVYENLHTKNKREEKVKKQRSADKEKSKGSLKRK

For the substance “Bis(4-nitro-2-((phenylimino)methyl)phenolate)-oxovanadium(IV) (5)”, the half-maximal inhibitory concentration (IC50) (usually the midpoint of a concentration-inhibition curve) in test [1] came to 0.93 µM; in test [2] it was 2.6 µM; in test [3] it was 1.4 µM; in test [4], 2.5 µM; in test [5], 3.2 µM.
For “Bis(4-chloro-2-((phenylimino)methyl)phenolate)-oxovanadium(IV) (3)” the same measures were 0.8 µM, 2.3 µM, 8.3 µM, 1 µM and 3.6 µM.
For “Bis(4-bromo-2-((phenylimino)methyl)phenolate)-oxovanadium(IV) (4)” the same measures were 0.69 µM, 35 µM, 1.9 µM, 6.5 µM and 2.9 µM.
